Measured values as given in ChEMBL document CHEMBL1201862, “PubChem BioAssay data set” (2004).
Activity calls are given as the source filed them. For most assays here, no stated cut-off is given here; in the data, actives have a measured EC50 and inactives only a lower limit.

Tests used:
[1] = target: T1, Heat shock factor protein 1 (Mus musculus, UniProt P38532); assay: decrease of HSF1-responsive luciferase luminescence – cell-based, NIH3T3, dose retest, confirmation (AID 2382); assay type: functional;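 further: NIH3T3 fibroblasts with HSF1-driven luciferase reporter stressed by proteasome inhibitor MG132; luminescence from HSF1-driven luciferase expression after 8 hours of MG132 stress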
T1 sequence (P38532 whole entry): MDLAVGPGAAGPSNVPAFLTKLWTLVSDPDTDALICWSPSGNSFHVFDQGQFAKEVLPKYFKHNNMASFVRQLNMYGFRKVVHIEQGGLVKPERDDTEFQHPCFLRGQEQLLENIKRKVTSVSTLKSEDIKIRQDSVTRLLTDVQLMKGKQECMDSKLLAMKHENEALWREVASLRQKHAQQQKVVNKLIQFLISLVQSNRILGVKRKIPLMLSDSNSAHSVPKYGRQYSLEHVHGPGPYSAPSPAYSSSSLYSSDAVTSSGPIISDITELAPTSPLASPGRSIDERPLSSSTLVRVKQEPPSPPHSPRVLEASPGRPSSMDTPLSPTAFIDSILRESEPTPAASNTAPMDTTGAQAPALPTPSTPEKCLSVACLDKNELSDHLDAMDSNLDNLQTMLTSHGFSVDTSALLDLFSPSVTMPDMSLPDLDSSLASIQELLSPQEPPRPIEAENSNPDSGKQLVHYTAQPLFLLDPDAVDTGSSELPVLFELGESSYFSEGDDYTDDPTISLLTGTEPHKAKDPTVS

[2] = target: Cytochrome P450 2D6 (Homo sapiens, UniProt P10635);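 further: CYP2D6 member of a cytochrome P450 panel assay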
[3] = target: Cytochrome P450 2C9 (Homo sapiens, UniProt P11712)
[4] = viability of uninfected HEp-2 cells – cell-based, HTS, cytotoxicity control for RSV inhibitor project, dose response (AID 2410); assay type: functional; conditions: human respiratory syncytial virus
[5] = Trypanosoma cruzi growth suppression in host cells – NIH3T3 host cells, beta-gal luminescence, confirmation (AID 2044); assay type: functional, cell-based;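 further: intracellular parasites grown in NIH/3T3 mouse fibroblasts as host cells; luminescent beta-galactosidase reporter signal from transgenic T. cruzi replicating inside host cells; inhibitors lower the luminescence signal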
[6] = NIH3T3 cell viability loss – ATP luminescence, mouse fibroblasts, counter-screen, dose response (AID 2010); assay type: functional, cell-based;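 further: cells exposed to compound for about 90 hours before reading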
[7] = tested on: Streptococcus sp. 'group A'; assay: Streptococcus pyogenes SK(-)GAS viability under kanamycin – luminescence, BacTiterGlo, confirmation, counter-screen for streptokinase expression inhibitor project, dose response (AID 1900); assay type: functional, organism-based
[8] = tested on: Streptococcus; assay: GAS UMAA2166 growth inhibition – luminescence, BacTiterGlo, counter-screen for streptokinase expression inhibitor project, dose response (AID 1915); assay type: functional, organism-based;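 further: potency for reduction of bacterial viability or growth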

Cytochrome P450 2C9, sequence (P11712 whole entry): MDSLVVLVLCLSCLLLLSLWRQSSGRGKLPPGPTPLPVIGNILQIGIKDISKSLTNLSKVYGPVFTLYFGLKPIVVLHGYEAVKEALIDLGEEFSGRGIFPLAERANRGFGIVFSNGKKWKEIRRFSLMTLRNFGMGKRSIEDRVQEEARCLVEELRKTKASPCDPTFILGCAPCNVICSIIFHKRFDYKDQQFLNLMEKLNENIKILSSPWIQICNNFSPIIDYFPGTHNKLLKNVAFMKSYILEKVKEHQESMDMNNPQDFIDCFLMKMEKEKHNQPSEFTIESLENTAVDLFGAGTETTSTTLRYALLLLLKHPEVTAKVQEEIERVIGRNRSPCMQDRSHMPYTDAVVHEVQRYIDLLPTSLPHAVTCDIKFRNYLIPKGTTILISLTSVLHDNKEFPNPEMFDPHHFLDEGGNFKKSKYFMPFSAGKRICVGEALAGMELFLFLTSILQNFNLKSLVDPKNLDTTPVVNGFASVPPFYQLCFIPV
Cytochrome P450 2D6, sequence (P10635 whole entry): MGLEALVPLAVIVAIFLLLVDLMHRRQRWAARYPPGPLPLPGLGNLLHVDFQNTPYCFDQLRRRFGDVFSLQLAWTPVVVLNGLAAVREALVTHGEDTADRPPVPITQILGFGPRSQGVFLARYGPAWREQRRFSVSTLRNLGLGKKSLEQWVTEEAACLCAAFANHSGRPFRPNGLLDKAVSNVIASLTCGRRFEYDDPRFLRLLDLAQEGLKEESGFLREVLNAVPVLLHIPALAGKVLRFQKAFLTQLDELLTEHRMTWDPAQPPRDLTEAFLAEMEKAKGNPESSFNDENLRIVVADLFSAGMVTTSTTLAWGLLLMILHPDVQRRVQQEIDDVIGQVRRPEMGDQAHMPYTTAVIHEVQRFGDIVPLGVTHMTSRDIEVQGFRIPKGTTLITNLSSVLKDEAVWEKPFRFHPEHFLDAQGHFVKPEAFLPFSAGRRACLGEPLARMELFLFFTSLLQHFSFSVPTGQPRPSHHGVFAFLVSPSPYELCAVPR

N#Cc1cccc(C#N)c1Oc1ccc(S(=O)(=O)Nc2ccc(Cl)cc2)cc1
EC50 [1]: > 195 µM (not active)

O=C(c1ccccc1Nc1ccc(SC(F)F)cc1)N1CCCCC1
AC50 [2]: 1.12 µM (inconclusive) | AC50 [3]: 2.82 µM (inconclusive)

CS(=O)(=O)Nc1cccc(-c2ccc3ncnc(NCc4cccs4)c3c2)c1
AC50 [3]: 0.501 µM (inconclusive)

COc1cccc(C(=O)Nc2cccc(-c3ccccc3)c2)c1
CC50 [4]: 29.6 µM (active)

O=C(C(NS(=O)(=O)c1cccs1)c1ccccc1)N1CCN(c2ccccc2)CC1 (stereo unspecified)
AC50 [2]: 25.1 µM (inconclusive)

Cn1c(=O)c2c(nc(Oc3cccc(O)c3)n2C)n(C)c1=O
EC50 [1]: > 195 µM (not active)

Cn1c(/C=C/c2ccccc2)nc2ccccc2c1=O
EC50 [1]: > 195 µM (not active)

COc1ccc(Cn2nnc3c(O)nc(C4CCN(S(=O)(=O)c5ccc(C)cc5)CC4)nc32)cc1
CC50 [4]: 15.7 µM (active)

COc1cc(C(C(=O)NCc2ccccc2)N(Cc2ccco2)C(=O)c2cnccn2)cc(OC)c1OC (stereo unspecified)
EC50 [1]: > 195 µM (not active)

O=C(Oc1ccccc1)N1CCC[C@@]2(CCN(c3ccccn3)C2)C1
AC50 [3]: 39.8 µM (inconclusive)

Clc1ccc(-n2cccc2CN2CCc3c([nH]c4ccccc34)C2c2ccccn2)nc1 (stereo unspecified)
CC50 [4]: 25.1 µM (active)

Cc1occc1-c1nc(-c2ccncc2)no1
CC50 [4]: 39.6 µM (active)

Cn1nc(C(F)(F)F)c(C(=O)Nc2ccc(F)cc2F)c1Sc1ccc(C(F)(F)F)cc1
AC50 [2]: 14.1 µM (inconclusive)

CC(=O)N1CCC[C@@]2(CCN(c3ncccn3)C2)C1
AC50 [2]: 15.8 µM (inconclusive)

Clc1cccc(/C=N\C=N/c2cccc(Cl)c2)c1
AC50 [2]: 25.1 µM (inconclusive)

COc1ccc(Cn2nnnc2C(c2cc3cccc(C)c3nc2O)N2CCN(C)CC2)cc1 (stereo unspecified)
EC50 [1]: > 195 µM (not active)

O=C(c1ccncc1)N1CCC2(CCCN(c3ccc(-c4ccccc4)cc3)C2)CC1
AC50 [2]: 12.6 µM (inconclusive)

CNCCCCOc1ccc(C(C)(C)C)cc1Cl
EC50 [5]: 0.834 µM (active) | EC50 [6]: 9.37 µM (active)

CC(C)OCCCn1c(NN)nc2ccccc2c1=O
EC50 [1]: > 195 µM (not active)

CCc1cccc(Nc2c([N+](=O)[O-])cc(C(=O)N3CC(=O)Nc4ccccc43)cc2[N+](=O)[O-])c1
EC50 [5]: 1.1 µM (active) | EC50 [6]: > 30 µM (not active)

C=CCSc1nc(N)cc(O)n1
EC50 [1]: > 195 µM (not active)

O=C(O)CCn1cc(/C=C2\NC(=S)N(c3ccccc3)C2=O)c(-c2ccc(Br)cc2)n1
EC50 [1]: > 195 µM (not active)

CCC(C(=O)NC(C)(C)C)N(Cc1ccc(F)cc1)C(=O)c1snc(C(N)=O)c1N (stereo unspecified)
EC50 [1]: > 195 µM (not active)

COc1cccc(Cn2c(=O)c(-c3cc(F)cc(F)c3)nc3cnc(OC)nc32)c1
AC50 [3]: 3.16 µM (inconclusive)

COCCNC(=O)CCc1nnc(C2(c3ccc(Cl)cc3)CCC2)o1
EC50 [1]: > 195 µM (not active)

CC1CCCN(S(=O)(=O)c2ccc(Br)s2)C1 (stereo unspecified)
EC50 [1]: > 195 µM (not active)

CCCCCCCC(=O)NNC(=O)c1c(O)c2ccccc2n(CCC)c1=O
EC50 [7]: 2.67 µM (active) | EC50 [8]: 4.91 µM (active)

COC(=O)C(O)(c1ccc(NC(=S)NC(=O)c2ccc(Cl)cc2Cl)cc1)C(F)(F)F (stereo unspecified)
CC50 [4]: > 50 µM (active)

CCN(CC)CCn1c(=N)n(CCOc2ccccc2)c2ccccc21
EC50 [5]: 1.43 µM (active)

Cn1c(=O)c(-c2cccc(Cl)c2)nc2cncnc21
AC50 [3]: 39.8 µM (inconclusive)

Cc1cccc(CNc2ccnc(-c3ccoc3)n2)c1
AC50 [2]: 31.6 µM (inconclusive)

CN1CCc2c(cc(O)c(O)c2Cl)[C@H](c2cccc(Cl)c2)C1
AC50 [2]: 31.6 µM (inconclusive)

Cn1nc([N+](=O)[O-])nc1Oc1ccccc1
EC50 [5]: 0.459 µM (active) | EC50 [6]: > 60 µM (not active)

O=C(Nc1ccc(Cl)cn1)c1ccc2c(Cl)c3c(nc2c1)CCC3
EC50 [1]: 22.5 µM (active)

Cc1nn(Cc2cccc(C(=O)Nc3ccn(Cc4c(F)c(F)cc(F)c4F)n3)c2)c(C)c1[N+](=O)[O-]
CC50 [4]: 23.8 µM (active) | EC50 [5]: 0.882 µM (active) | EC50 [6]: > 60 µM (not active)

CCN(CC)CCCN/C(C)=C1\C(=O)NC(=O)N(C2CCCCC2)C1=O
EC50 [5]: 0.35 µM (active) | EC50 [6]: > 60 µM (not active)

CCN1c2nc3c(C)cccn3c(=O)c2CC2(C(=O)N(C)C(=O)N(C)C2=O)C1C (stereo unspecified)
EC50 [1]: > 195 µM (not active)

O=[N+]([O-])c1ccc(N2CCN(Cc3ccc4c(c3)OCO4)CC2)nc1
EC50 [1]: > 195 µM (not active)

COc1ccc(Nc2nc(-c3cccs3)nc3ccccc23)cc1S(=O)(=O)N1CCOCC1
CC50 [4]: 17.1 µM (active) | EC50 [5]: 1.25 µM (active) | EC50 [6]: 10.1 µM (active)

CN(C)C(=O)N1CCC(C(=O)NCc2ccc(F)cc2Cl)CC1
EC50 [1]: > 195 µM (not active)

Cn1nc(-c2ccc(Cl)cc2)cc1NC(=O)Nc1ccccc1
CC50 [4]: > 50 µM (active)

CC(NC(=O)c1ccccc1Br)c1ccc2c(c1)CCCC2 (stereo unspecified)
CC50 [4]: 21.5 µM (active)

CCN(CC)CCNc1cc(C)c(C#N)c2nc3ccccc3n12
EC50 [5]: 1.09 µM (active) | EC50 [6]: > 60 µM (not active)

COc1ccc(CC(=O)Nc2cc(C)on2)cc1
EC50 [1]: > 195 µM (not active)

CCOc1cc(-n2ncc(C#N)c2N)nc(SC)n1
CC50 [4]: 17.1 µM (active)

CCOC(=O)C1=C(C)N(CCC(=O)O)C(=O)NC1c1ccccc1Cl (stereo unspecified)
EC50 [1]: > 195 µM (not active)

CN(C)Cc1cc(O)c(O)c(CN(C)C)c1
AC50 [3]: 7.94 µM (inconclusive)

Cc1ccc(/C(C#N)=C\c2cn(C)c3ccccc23)cc1
CC50 [4]: 33.5 µM (active)

CS(=O)(=O)N1CCc2cc(-c3csc(NC(=O)C(c4ccccc4)c4ccccc4)n3)ccc21
EC50 [5]: 1.45 µM (active) | EC50 [6]: > 60 µM (not active)

C[n+]1c(/C=C/c2ccc3c(c2)OCO3)ccc2ccccc21
EC50 [1]: 0.181 µM (active)

O=S(=O)(NCC(c1cccnc1)N1CCN(Cc2ccccc2)CC1)c1ccccc1 (stereo unspecified)
EC50 [5]: 0.634 µM (active) | EC50 [6]: > 60 µM (not active)

FC(F)(F)c1ccccc1-c1nc(Nc2ccncc2)c2ccccc2n1
AC50 [3]: 0.794 µM (inconclusive)

CCC(C)c1ccccc1NC(=O)c1cc2cccc([N+](=O)[O-])c2[nH]1 (stereo unspecified)
EC50 [5]: 1.35 µM (active) | EC50 [6]: > 60 µM (not active)

O=C(COc1ccccc1)NC1C(=O)N2C(C(=O)O)=C(Cl)CSC12 (stereo unspecified)
EC50 [7]: 0.301 µM (active) | EC50 [8]: 0.372 µM (active)

COc1ccc(CNC(=O)C2CC(c3ccc(OC)cc3)=NO2)cc1 (stereo unspecified)
AC50 [2]: 8.91 µM (inconclusive)

Cc1cc(C(=O)NNS(=O)(=O)c2ccc(F)cc2)nn1C(C)(C)C
EC50 [1]: > 195 µM (not active)

COc1ccc(Cn2c(SC)nc3ccccc32)cc1[N+](=O)[O-]
EC50 [1]: > 195 µM (not active)

O=c1c(-c2ccc(F)cc2)nc2cnc(N3CCNCC3)nc2n1Cc1cccs1
AC50 [2]: 20 µM (inconclusive)

O=c1ccc2ccc(OCCOc3cccc(Cl)c3)cc2o1
CC50 [4]: 42.4 µM (active)

CC(C)OC(=O)C1=C2SCC(=O)N2C(N)=C(C#N)C1
AC50 [2]: 25.1 µM (inconclusive)

COC(=O)C(Cc1ccccc1)NC(=O)CNC(=O)c1sc2ccccc2c1Cl (stereo unspecified)
EC50 [1]: > 195 µM (not active)

COc1ccc(-c2cc(-c3ccccc3)nc(Cl)n2)cc1OC
CC50 [4]: 19.1 µM (active)

OC[C@@H]1O[C@@H](n2cnc3c(N[C@H]4CCC[C@@H]4O)ncnc32)[C@H](O)[C@H]1O
AC50 [2]: 15.8 µM (inconclusive)

CCCS(=O)(=O)N1CCCC(C(=O)NCCN2CCOCC2)C1 (stereo unspecified)
AC50 [3]: 7.08 µM (inconclusive)

Cc1ccc(-n2c(S)nnc2CNc2ccc(C)c(Cl)c2)cc1
CC50 [4]: 27.7 µM (active)

COC1(C[S+]([O-])c2ccccc2)CCN(CCc2c[nH]c3ccc(F)cc23)CC1 (stereo unspecified)
AC50 [2]: 15.8 µM (inconclusive) | AC50 [3]: 25.1 µM (inconclusive)

O=C1NC(=O)C2(CCc3ccccc32)N1 (stereo unspecified)
EC50 [1]: > 195 µM (not active)

COc1ccc(/C=N/c2c(-c3ccc(OC)cc3)nc3n2CCS3)cc1
EC50 [1]: > 195 µM (not active)

CN1CCN(c2ccc([N+](=O)[O-])c(N/N=C3\CN4CCC3CC4)c2)CC1
AC50 [3]: 0.01 µM (inconclusive)

O=C(NCc1ccccc1Cl)C(=O)c1c[nH]c2ccccc12
CC50 [4]: > 6.25 µM (active)

O=C(NC(c1ccccc1)c1cc(Cl)c2cccnc2c1O)c1cccnc1 (stereo unspecified)
EC50 [7]: 0.64 µM (active) | EC50 [5]: 0.488 µM (active) | EC50 [6]: > 60 µM (not active) | EC50 [8]: 2.15 µM (active)

C[C@H](NC[C@H](O)CP(=O)(O)Cc1ccccc1)c1ccc(Cl)c(Cl)c1
AC50 [3]: 15.8 µM (inconclusive)
